Laboratory results as given in ChEMBL document CHEMBL2401712, “Fused thiazolyl alkynes as potent mGlu5 receptor positive allosteric modulators” (Bioorg Med Chem Lett, 2013).

How the values were obtained:
Liver microsomes [1] = assay: Intrinsic clearance in human liver microsomes; format: ADME, Microsome; parameters: unit not given here
[2] = Plasma protein binding in human; format: ADME, cell-free; details: read-out: PPB (converted)
CYP2D6 = CYP2D6 (Homo sapiens, UniProt P10635); assay: Inhibition of CYP2D6 (unknown origin) at 5 uM relative to control; format: ADME
[3] = target: T1, Metabotropic glutamate receptor 5 (Homo sapiens, UniProt P41594); assay: Negative allosteric modulation of human mGlu5 receptor expressed in HEK293 cells assessed as inhibition of L-glutamate-induced activity after 1 hr by FLIPR assay; format: cell-based
Target sequence in this assay (P41594 whole entry): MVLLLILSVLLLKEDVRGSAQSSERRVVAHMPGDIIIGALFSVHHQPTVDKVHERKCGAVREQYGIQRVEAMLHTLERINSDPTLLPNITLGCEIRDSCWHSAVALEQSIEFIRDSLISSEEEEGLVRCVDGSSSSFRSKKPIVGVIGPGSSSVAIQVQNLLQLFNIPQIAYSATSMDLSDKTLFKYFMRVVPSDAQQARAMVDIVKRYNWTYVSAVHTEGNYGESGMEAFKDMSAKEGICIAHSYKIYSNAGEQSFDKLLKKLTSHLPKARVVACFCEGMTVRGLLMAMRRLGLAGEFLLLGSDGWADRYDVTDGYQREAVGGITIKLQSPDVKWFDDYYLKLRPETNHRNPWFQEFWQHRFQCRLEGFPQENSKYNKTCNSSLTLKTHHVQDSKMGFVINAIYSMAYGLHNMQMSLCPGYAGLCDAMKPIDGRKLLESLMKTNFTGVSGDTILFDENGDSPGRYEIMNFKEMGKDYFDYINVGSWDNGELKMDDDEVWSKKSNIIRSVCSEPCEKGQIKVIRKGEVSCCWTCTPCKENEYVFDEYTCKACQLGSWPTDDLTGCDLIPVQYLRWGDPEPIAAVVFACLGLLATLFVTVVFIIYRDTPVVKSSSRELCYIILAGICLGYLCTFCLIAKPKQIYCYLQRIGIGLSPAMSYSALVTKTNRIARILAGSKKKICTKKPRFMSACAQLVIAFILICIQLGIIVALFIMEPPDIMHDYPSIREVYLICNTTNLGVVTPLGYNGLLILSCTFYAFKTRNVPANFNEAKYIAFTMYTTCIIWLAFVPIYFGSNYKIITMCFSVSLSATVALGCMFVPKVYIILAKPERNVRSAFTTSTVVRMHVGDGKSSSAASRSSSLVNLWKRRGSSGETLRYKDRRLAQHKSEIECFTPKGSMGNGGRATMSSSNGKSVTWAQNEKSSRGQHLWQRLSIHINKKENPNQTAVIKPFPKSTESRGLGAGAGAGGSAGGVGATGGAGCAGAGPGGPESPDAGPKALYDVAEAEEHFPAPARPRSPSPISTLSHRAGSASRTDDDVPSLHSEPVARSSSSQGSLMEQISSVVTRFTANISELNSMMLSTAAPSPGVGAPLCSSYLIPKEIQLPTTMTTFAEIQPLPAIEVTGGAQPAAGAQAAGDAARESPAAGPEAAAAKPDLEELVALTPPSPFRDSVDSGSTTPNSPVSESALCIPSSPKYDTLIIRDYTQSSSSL

[4] = target: T1, Metabotropic glutamate receptor 5; assay: Positive allosteric modulation of human mGlu5 receptor expressed in HEK293 cells assessed as potentiation of L-glutamate-induced activity after 1 hr by FLIPR assay; format: cell-based
Target sequence in this assay (P41594 whole entry): as above

[5] = Plasma protein binding in rat; format: ADME, cell-free; details: read-out: PPB (converted)
[6] = target: T1, Metabotropic glutamate receptor 5; assay: Positive allosteric modulation of human mGlu5 receptor expressed in HEK293 cells assessed as potentiation of L-glutamate-induced activity after 1 hr by FLIPR assay relative to control; format: cell-based
Target sequence in this assay (P41594 21-1212 limits assumed): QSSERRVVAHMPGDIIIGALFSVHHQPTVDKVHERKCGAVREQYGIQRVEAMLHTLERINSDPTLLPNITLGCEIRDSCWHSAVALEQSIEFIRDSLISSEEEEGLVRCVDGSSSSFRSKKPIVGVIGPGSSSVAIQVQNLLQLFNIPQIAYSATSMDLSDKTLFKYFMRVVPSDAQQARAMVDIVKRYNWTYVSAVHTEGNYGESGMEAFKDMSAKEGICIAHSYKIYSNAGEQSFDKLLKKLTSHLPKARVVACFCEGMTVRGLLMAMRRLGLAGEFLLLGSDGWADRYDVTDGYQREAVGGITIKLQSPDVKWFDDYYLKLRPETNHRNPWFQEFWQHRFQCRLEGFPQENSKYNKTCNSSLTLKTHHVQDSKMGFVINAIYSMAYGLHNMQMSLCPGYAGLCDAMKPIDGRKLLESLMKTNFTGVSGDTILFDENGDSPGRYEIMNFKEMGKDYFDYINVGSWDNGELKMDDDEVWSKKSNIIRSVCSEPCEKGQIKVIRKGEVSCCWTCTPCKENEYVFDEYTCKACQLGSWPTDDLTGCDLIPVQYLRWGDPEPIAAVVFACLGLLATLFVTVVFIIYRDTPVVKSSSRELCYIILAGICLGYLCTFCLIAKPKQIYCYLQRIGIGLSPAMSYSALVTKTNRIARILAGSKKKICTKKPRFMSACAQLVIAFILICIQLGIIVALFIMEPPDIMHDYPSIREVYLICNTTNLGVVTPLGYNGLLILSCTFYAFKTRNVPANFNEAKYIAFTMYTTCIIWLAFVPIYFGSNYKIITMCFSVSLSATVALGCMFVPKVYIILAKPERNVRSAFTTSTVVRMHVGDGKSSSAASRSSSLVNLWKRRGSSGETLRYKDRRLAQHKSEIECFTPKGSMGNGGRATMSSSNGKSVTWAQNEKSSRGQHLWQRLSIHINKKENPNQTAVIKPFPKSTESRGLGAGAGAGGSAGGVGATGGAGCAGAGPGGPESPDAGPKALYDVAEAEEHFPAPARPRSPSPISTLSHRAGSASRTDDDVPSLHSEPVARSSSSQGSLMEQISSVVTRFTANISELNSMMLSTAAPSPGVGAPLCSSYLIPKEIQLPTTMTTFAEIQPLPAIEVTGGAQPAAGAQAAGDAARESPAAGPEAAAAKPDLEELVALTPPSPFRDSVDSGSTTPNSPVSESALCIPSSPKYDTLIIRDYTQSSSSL

Liver microsomes [7] = assay: Intrinsic clearance in rat liver microsomes; format: ADME, Microsome
CYP3A4 = CYP3A4 (Homo sapiens, UniProt P08684); assay: Inhibition of CYP3A4 (unknown origin) at 5 uM relative to control; format: ADME
Liver microsomes [8] = assay: Metabolic stability in human liver microsomes assessed as GSH adduct formation after 60 mins by LC-MS/MS analysis; format: ADME, Microsome; details: 1 h
[9] = target: T1, Metabotropic glutamate receptor 5; assay: Positive allosteric modulation of mGlu5 receptor (unknown origin)
Target sequence in this assay (P41594 whole entry): as the sequence (P41594 whole entry) above

[10] = target: T1, Metabotropic glutamate receptor 5; assay: Positive allosteric modulation of mGlu5 receptor (unknown origin) relative to control
Target sequence in this assay (P41594 21-1212 limits assumed): as the sequence (P41594 21-1212 limits assumed) above

[11] = target: T1, Metabotropic glutamate receptor 5; assay: Negative allosteric modulation of human mGlu5 receptor expressed in HEK293 cells assessed as inhibition of L-glutamate-induced activity after 1 hr by FLIPR assay relative to control; format: cell-based; parameters: concentration or dose not given beside the values; details: concentration not given here
Target sequence in this assay (P41594 21-1212 limits assumed): as above

CYP2D6, sequence (P10635 whole entry): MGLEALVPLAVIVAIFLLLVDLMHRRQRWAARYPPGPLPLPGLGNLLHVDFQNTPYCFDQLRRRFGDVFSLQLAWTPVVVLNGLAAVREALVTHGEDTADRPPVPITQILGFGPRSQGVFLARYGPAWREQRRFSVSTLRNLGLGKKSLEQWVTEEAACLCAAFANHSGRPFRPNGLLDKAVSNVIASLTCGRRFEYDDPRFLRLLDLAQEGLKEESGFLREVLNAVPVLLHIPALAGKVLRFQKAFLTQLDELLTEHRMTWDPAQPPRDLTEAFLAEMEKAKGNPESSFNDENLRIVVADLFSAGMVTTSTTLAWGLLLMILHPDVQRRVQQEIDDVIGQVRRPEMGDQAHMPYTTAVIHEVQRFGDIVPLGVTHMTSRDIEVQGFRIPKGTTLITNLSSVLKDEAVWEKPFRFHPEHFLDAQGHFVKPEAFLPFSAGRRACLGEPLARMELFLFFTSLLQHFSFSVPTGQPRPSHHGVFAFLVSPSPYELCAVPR
CYP3A4, sequence (P08684 whole entry): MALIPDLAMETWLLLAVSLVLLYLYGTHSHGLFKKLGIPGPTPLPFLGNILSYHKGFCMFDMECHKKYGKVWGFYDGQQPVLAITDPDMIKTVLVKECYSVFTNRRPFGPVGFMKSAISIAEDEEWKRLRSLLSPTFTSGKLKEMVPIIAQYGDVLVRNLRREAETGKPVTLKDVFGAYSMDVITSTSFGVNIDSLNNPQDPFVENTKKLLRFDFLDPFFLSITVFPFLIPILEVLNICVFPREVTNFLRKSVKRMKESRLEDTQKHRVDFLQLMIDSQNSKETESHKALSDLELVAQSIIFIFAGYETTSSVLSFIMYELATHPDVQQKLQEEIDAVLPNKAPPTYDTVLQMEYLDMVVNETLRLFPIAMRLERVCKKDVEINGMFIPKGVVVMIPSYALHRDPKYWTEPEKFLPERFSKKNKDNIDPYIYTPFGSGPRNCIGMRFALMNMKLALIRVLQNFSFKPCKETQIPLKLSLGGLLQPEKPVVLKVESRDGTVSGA

Structure (SMILES)	CLH (Liver microsomes [1])	fraction unbound [2]	inhibition at 5 µM (CYP2D6)	IC50 [3]	EC50 [4]	fraction unbound [5]	Emax [6]	CLH (Liver microsomes [7])	inhibition at 5 µM (CYP3A4)	Stability (Liver microsomes [8])	EC50 [9]	Emax [10]	inhibition [11]
O=C(c1cnc(C#Cc2ccccc2)s1)N1CCCCC1	–	–	–	–	–	–	–	–	–	Unstable	6.1 nM	167%	–
CN1CCc2nc(C#Cc3ccccc3)sc2C1=O	3.1	0.033	< 40%	> 10000 nM	2.4 nM	0.049	180%	52 mL/min	< 40%	Unstable	–	–	–
C(#Cc1nc2c(s1)CN(C1CCCCC1)CC2)c1ccccc1	–	–	–	> 10000 nM	> 10000 nM	–	19%	–	–	–	–	–	1%
O=C(c1cccc(Cl)c1)N1CCc2nc(C#Cc3ccccc3)sc2C1	–	–	–	> 10000 nM	8.7 nM	–	170%	–	–	–	–	–	26%
CN1CCc2nc(C#Cc3cccc(F)c3)sc2C1	–	–	–	> 10000 nM	> 10000 nM	–	-8%	–	–	–	–	–	6%

Second part, the molecule after the results:

CLH (Liver microsomes [1])	fraction unbound [2]	inhibition at 5 µM (CYP2D6)	IC50 [3]	EC50 [4]	fraction unbound [5]	Emax [6]	CLH (Liver microsomes [7])	inhibition at 5 µM (CYP3A4)	Stability (Liver microsomes [8])	EC50 [9]	Emax [10]	inhibition [11]	Structure (SMILES)
1	0.024	< 40%	> 10000 nM	9.8 nM	0.047	180%	49 mL/min	< 40%	–	–	–	–	O=C(N1CCCC1)N1CCc2nc(C#Cc3ccccc3)sc2C1
4.9	0.035	< 40%	> 10000 nM	34 nM	0.061	110%	88 mL/min	< 40%	Stable	–	–	–	CN1CCc2nc(C#Cc3ccccc3)sc2C1
1.1	0.011	< 40%	> 10000 nM	18 nM	0.012	89%	7.6 mL/min	< 40%	Stable	–	–	52%	O=C(C1CC(F)(F)C1)N1CCc2nc(C#Cc3ccccc3)sc2C1
–	–	–	34 nM	> 10000 nM	–	-12%	–	–	–	–	–	87%	O=S(=O)(C1CC1)N1CCc2nc(C#Cc3ccccc3)sc2C1
